Assay results: patent publication US20240269139A1, “COMPOUNDS FOR TARGETED PROTEIN DEGRADATION OF KINASES” (DANA-FARBER CANCER INSTITUTE, INC., priority 2020, published 2024)
Values joined by “and” are separate entries in the source; they are usually repeats but may differ in a detail not shown here. Identical values can stand only once. Like-named read-outs stand apart in the source and are kept apart here.

Assays:
Assay type in all cases: cell-based
[1] = biological target: T1, protein kinases (human kinome) (Homo sapiens, UniProt O14976); settings: for logFC GAK: GAK (O14976)
T1 sequence (O14976 1-1311): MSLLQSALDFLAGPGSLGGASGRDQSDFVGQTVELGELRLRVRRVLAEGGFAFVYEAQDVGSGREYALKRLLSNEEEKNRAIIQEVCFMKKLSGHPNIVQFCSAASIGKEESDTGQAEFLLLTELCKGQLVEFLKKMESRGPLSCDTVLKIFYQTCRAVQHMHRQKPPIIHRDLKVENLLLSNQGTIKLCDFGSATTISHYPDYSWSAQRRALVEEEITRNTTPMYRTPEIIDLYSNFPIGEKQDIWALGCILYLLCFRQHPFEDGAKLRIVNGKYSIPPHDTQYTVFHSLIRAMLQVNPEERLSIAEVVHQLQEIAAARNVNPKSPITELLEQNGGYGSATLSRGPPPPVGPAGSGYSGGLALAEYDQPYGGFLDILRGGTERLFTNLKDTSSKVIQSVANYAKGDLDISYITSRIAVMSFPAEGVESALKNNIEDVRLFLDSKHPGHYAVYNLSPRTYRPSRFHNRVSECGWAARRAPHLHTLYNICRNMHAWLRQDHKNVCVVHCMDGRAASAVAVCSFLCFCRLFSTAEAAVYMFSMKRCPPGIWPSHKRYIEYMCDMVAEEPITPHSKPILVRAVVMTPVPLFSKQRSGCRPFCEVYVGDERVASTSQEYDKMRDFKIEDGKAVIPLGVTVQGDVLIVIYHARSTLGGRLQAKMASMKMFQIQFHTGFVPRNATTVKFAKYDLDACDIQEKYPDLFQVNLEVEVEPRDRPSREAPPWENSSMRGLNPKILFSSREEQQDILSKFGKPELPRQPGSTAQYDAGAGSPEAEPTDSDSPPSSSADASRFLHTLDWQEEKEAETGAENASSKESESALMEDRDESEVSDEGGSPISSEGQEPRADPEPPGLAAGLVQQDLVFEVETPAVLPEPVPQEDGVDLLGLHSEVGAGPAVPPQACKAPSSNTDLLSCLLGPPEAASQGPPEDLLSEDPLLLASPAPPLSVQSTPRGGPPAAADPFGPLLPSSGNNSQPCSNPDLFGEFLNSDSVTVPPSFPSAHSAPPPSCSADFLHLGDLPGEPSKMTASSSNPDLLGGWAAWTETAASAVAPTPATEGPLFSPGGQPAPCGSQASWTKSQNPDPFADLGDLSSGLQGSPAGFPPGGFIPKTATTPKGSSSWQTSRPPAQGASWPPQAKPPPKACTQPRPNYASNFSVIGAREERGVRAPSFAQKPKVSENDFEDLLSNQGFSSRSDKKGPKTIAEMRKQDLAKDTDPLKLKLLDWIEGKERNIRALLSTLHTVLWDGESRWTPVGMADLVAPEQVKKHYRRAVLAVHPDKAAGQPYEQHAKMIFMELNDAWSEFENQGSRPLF

[2] = biological target: T2, protein kinases (human kinome) (Homo sapiens, UniProt O75385); settings: for logFC: ULK1 (O75385) protein abundance, degrader vs DMSO, down; for logFC ULK1: ULK1 O75385
T2 sequence (O75385 1-1050): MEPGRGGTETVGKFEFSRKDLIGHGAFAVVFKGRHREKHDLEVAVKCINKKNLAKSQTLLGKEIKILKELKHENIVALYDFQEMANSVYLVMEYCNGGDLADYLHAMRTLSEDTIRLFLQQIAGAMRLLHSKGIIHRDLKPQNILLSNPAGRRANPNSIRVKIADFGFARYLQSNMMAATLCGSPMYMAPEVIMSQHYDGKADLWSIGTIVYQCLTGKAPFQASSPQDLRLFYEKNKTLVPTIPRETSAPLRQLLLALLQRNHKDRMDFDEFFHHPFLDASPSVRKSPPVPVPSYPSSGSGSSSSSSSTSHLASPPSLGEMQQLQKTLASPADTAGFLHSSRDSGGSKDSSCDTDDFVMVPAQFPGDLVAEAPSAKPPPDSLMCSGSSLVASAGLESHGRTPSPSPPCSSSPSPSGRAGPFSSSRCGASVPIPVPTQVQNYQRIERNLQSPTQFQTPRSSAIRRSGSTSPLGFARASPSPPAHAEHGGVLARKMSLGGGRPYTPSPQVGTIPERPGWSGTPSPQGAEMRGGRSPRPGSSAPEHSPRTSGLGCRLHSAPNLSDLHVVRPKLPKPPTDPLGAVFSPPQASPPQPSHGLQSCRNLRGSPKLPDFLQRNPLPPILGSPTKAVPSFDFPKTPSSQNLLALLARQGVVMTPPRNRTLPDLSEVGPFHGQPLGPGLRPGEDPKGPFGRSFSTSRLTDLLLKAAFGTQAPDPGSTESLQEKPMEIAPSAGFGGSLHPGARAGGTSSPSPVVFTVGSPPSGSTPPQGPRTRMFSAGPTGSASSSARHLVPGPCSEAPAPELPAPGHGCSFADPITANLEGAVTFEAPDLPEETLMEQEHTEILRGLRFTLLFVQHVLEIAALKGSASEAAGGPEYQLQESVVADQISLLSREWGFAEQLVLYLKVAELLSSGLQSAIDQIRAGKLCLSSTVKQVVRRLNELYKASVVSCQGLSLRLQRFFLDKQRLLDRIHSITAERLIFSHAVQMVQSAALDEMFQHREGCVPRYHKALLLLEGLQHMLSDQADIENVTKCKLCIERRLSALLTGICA

[3] = biological target: protein kinases (human kinome) (Homo sapiens, UniProt Q9H0K1); settings: for logFC of SIK2: Accession Q9H0K1; for logFC SIK2 (Q9H0K1): direction of change down
Chain of protein kinases (human kinome) (Homo sapiens, UniProt Q9H0K1) (Q9H0K1 whole entry): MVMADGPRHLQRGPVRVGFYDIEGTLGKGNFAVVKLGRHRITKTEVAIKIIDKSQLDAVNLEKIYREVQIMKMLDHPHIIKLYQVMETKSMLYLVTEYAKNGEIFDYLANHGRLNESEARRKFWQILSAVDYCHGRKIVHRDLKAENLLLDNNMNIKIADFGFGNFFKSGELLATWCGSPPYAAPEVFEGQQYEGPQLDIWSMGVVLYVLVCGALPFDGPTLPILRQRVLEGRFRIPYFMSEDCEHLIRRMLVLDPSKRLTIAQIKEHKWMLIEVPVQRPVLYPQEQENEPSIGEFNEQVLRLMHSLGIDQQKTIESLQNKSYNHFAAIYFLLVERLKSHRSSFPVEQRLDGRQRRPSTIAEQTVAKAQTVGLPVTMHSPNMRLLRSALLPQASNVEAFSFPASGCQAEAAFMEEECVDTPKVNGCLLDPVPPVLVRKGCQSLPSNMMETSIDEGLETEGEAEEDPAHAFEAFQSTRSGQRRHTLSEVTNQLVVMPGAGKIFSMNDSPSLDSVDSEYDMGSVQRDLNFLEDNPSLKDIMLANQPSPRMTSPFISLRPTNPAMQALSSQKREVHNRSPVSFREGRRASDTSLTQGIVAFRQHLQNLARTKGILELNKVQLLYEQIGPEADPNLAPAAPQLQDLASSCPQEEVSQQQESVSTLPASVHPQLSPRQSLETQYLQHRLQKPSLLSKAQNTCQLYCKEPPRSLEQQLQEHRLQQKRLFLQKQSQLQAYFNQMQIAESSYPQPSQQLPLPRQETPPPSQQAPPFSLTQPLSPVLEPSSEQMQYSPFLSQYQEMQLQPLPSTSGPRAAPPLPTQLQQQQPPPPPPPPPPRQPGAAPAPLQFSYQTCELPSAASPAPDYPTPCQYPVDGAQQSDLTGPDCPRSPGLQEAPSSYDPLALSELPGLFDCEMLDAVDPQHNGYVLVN

[4] = direction down, experiment wp016

## CC(C)S(=O)(=O)c1ccccc1Nc1nc(Nc2ccc(N3CCN(CCOCCNC(=O)CNc4cccc5c4C(=O)N(C4CCC(=O)NC4=O)C5=O)CC3)cc2)ncc1Cl (stereo not drawn) [SK.3.91]
[1]; Experiment wp016, 1 uM, down
  logFC of GAK (O14976): −0.3526
[1]; Experiment wp016, down
  logFC of GAK (O14976): −0.5011
[1]; Experiment wp105, down
  logFC of GAK (O14976): −0.3832
[1]; [4]
  logFC GAK: −0.5011
[1]; direction down, experiment wp018, 1 uM
  logFC GAK: −0.3526
[1]; direction down, experiment wp105
  logFC GAK: −0.3832
[1]; direction down, experiment wp160, 4 hr
  logFC GAK: −0.3241
[1]; experiment wp160, 4 hr, down
  logFC GAK: −0.3241
[2]; 1 hr
  logFC: −1.472 and −1.466
[2]; 2 hr
  logFC: −2.779 and −2.583
[2]; experiment wp103
  logFC ULK1: −1.332
[2]; experiment wp105
  logFC ULK1: −1.712
[2]; experiment wp107
  logFC ULK1: −1.162
[2]; experiment wp133, 1 hr
  logFC ULK1: −1.472
[2]; experiment wp133, 2 hr
  logFC ULK1: −2.779
[2]; experiment wp133, 4 hr
  logFC ULK1: −3.572
[2]; experiment wp160, 1 hr
  logFC ULK1: −1.466
[2]; experiment wp160, 2 hr
  logFC ULK1: −2.583
[2]; experiment wp160, 4 hr
  logFC ULK1: −3.085
[3]; experiment wp105
  logFC of SIK2: −0.5386
[3]; experiment wp107
  logFC of SIK2: −1.568
  logFC SIK2 (Q9H0K1): −1.568
[3]; experiment wp114
  logFC of SIK2: −0.5757
[3]; experiment wp133, 2 hr
  logFC of SIK2: −0.4938
  logFC SIK2 (Q9H0K1): −0.4938
[3]; experiment wp133, 4 hr
  logFC of SIK2: −1.035
  logFC SIK2 (Q9H0K1): −1.035
[3]; experiment wp160, 2 hr
  logFC of SIK2: −0.5413
  logFC SIK2 (Q9H0K1): −0.5413
[3]; experiment wp160, 4 hr
  logFC of SIK2: −0.8364
  logFC SIK2 (Q9H0K1): −0.8364
[3]; Experiment wp105
  logFC SIK2 (Q9H0K1): −0.5386
[3]; Experiment wp114
  logFC SIK2 (Q9H0K1): −0.5757

## CC(C)S(=O)(=O)c1ccccc1Nc1nc(Nc2ccc(N3CCN(CCOCCOCCNC(=O)CNc4cccc5c4C(=O)N(C4CCC(=O)NC4=O)C5=O)CC3)cc2)ncc1Cl (stereo not drawn) [TL12.186]
[1]; Experiment wp016, down
  logFC of GAK (O14976): −0.3354
[1]; [4]
  logFC GAK: −0.3354
[2]; experiment wp131
  logFC ULK1: −3.01
[2]; experiment wp137
  logFC ULK1: −2.237
[3]; experiment wp131
  logFC of SIK2: −1.317
  logFC SIK2 (Q9H0K1): −1.317
